Reference: patent US20260241039A1, “FLUORESCENT PROBES FOR MAGL” (Hoffmann-La Roche Inc., priority 2022, published 2026)

The molecules below were run against T1, hMAGL (Homo sapiens, UniProt Q99685) (assay: 2-AG assay: MAGL inhibitory activity, hydrolysis of 2-arachidonoylglycerol to arachidonic acid followed by mass spectrometry). Details: 15 min pre-incubation at RT, 30 min reaction at RT, 8 μM 2-arachidonoylglycerol.
T1 sequence (Q99685 1-303): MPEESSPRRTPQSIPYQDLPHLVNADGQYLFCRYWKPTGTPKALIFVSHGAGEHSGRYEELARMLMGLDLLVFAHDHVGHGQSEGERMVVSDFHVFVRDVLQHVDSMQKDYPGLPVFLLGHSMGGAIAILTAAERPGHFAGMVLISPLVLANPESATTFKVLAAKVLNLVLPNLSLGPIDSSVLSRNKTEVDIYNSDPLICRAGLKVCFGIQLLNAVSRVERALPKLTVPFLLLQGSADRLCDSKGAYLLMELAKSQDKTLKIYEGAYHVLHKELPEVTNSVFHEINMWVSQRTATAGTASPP
Assay type: biochemical
Experimental: Compounds were profiled for MAGL inhibitory activity by determining the enzymatic activity by following the hydrolysis of the natural substrate 2-arachidonoylglycerol (2-AG) resulting in arachidonic acid, which can be followed by mass spectrometry. This assay is hereinafter abbreviated “2-AG assay”.
The 2-AG assay was carried out in 384 well assay plates (PP, Greiner Cat #784201) in a total volume of 20 μL. Compound dilutions were made in 100% DMSO (VWR Chemicals 23500.297) in a polypropylene plate in 3-fold dilution steps to give a final concentration range in the assay from 12.5 μM to […]. 0.25 μL compound dilutions (100% DMSO) were added to 9 μL MAGL in assay buffer (50 mM TRIS (GIBCO, 15567-027), 1 mM EDTA (Fluka, 03690-100 mL), 0.01% (v/v) Tween. After shaking, the plate was incubated for 15 min at RT. To start the reaction, 10 μL 2-arachidonoylglycerol in assay buffer was added. The final concentrations in the assay was […] and 8 μM 2-arachidonoylglyerol. After shaking and 30 min incubation at RT, the reaction was quenched by the addition of 40 μL of ACN containing 4 μM of d8-arachidonic acid. The amount of arachidonic acid was traced by an online SPE system (Agilent Rapidfire) coupled to a triple quadrupole mass spectrometer (Agilent 6460). A C18 SPE cartridge (G9205A) was used in an ACN/water liquid setup. The mass spectrometer was operated in negative electrospray mode following the mass transitions 303.1→259.1 for arachidonic acid and 311.1→267.0 for d8-arachidonic acid. The activity of the compounds was calculated based on the ratio of intensities [arachidonic acid/d8-arachidonic acid].

Compared with “2-(2-((5,5-difluoro-5H-4λ^4,5λ^4-dipyrrolo[1,2-c:2′,1′-f][1,3,2]diazaborinin-10-yl)oxy)-7-azaspiro[3.5]nonane-7-carbonyl)-7-oxa-2,5-diazaspiro[3.4]octan-6-one [Example 13]”, “2-(6-((5,5-difluoro-5H-4λ^4,5λ^4-dipyrrolo[1,2-c:2′,1′-f][1,3,2]diazaborinin-10-yl)methyl)-2-azaspiro[3.3]heptane-2-carbonyl)-7-oxa-2,5-diazaspiro[3.4]octan-6-one [Example 23]” is 3.2-fold lower in IC50: 3.99 nM for the first, 1.26 nM for the second.

Going from “2-(6-((5,5-difluoro-5H-4λ^4,5λ^4-dipyrrolo[1,2-c:2′,1′-f][1,3,2]diazaborinin-10-yl)methylene)-2-azaspiro[3.3]heptane-2-carbonyl)-7-oxa-2,5-diazaspiro[3.4]octan-6-one [Example 22]” to “2-(6-((5,5-difluoro-5H-4λ^4,5λ^4-dipyrrolo[1,2-c:2′,1′-f][1,3,2]diazaborinin-10-yl)oxy)-2-azaspiro[3.3]heptane-2-carbonyl)-7-oxa-2,5-diazaspiro[3.4]octan-6-one [Example 11]”, the IC50 falls from 12.6 nM to 1.76 nM (7.2-fold).

“2-(7-((5,5-difluoro-5H-4λ^4,5λ^4-dipyrrolo[1,2-c:2′,1′-f][1,3,2]diazaborinin-10-yl)methyl)-2-azaspiro[3.5]nonane-2-carbonyl)-7-oxa-2,5-diazaspiro[3.4]octan-6-one [Example 21]” and “2-(7-((5,5-difluoro-5H-4λ^4,5λ^4-dipyrrolo[1,2-c:2′,1′-f][1,3,2]diazaborinin-10-yl)methylene)-2-azaspiro[3.5]nonane-2-carbonyl)-7-oxa-2,5-diazaspiro[3.4]octan-6-one [Example 20]” are within 1.5-fold of each other in IC50: 0.69 nM for the first, 0.67 nM for the second.

First: 6-(6-((5,5-difluoro-5H-4λ^4,5λ^4-dipyrrolo[1,2-c:2′,1′-f][1,3,2]diazaborinin-10-yl)methyl)-2-azaspiro[3.3]heptane-2-carbonyl)-2H-benzo[b][1,4]oxazin-3(4H)-one [Example 24]
Second: O=C1CO[C@H]2CCN(C(=O)N3CC4(CC(Oc5ccc6ccc(=O)oc6c5)C4)C3)C[C@H]2N1 [Example 1]
The IC50 of the first is 34-fold lower: 7.5 nM for the first, 255 nM for the second.

`O=C1CO[C@H]2CCN(C(=O)N3CC(COc4ccc5ccc(=O)oc5c4)C3)C[C@H]2N1` [Example 2, (4aR,8aS)-6-(3-(((2-oxo-2H-chromen-7-yl)oxy)methyl)azetidine-1-carbonyl)hexahydro-2H-pyrido[4,3-b][1,4]oxazin-3(4H)-one] and `O=C1CO[C@H]2CCN(C(=O)N3CC(COc4cc(=O)oc5ccccc45)C3)C[C@H]2N1` [Example 3, (4aR,8aS)-6-(3-(((2-oxo-2H-chromen-4-yl)oxy)methyl)azetidine-1-carbonyl)hexahydro-2H-pyrido[4,3-b][1,4]oxazin-3(4H)-one] are within 1.5-fold of each other in IC50: 487 nM for the first, 667 nM for the second.

First: O=C1CO[C@H]2CCN(C(=O)N3CC4(CC(Oc5cc(=O)oc6ccccc56)C4)C3)C[C@H]2N1 [Example 4, (4aR,8aS)-6-(6-((2-oxo-2H-chromen-4-yl)oxy)-2-azaspiro[3.3]heptane-2-carbonyl)hexahydro-2H-pyrido[4,3-b][1,4]oxazin-3(4H)-one]
Second: COc1ccc2c(CN3CCN(C(=O)N4CC[C@@H]5OCC(=O)N[C@@H]5C4)CC3)cc(=O)oc2c1 [Example 5, (4aR,8aS)-6-(4-((7-methoxy-2-oxo-2H-chromen-4-yl)methyl)piperazine-1-carbonyl)hexahydro-2H-pyrido[4,3-b][1,4]oxazin-3(4H)-one]
The IC50 of the first is 11-fold lower: 298 nM for the first, 3310 nM for the second. The first is the more potent here.

`O=C1CO[C@H]2CCN(C(=O)N3CCC(Nc4ccc([N+](=O)[O-])c5nonc45)CC3)C[C@H]2N1` [Example 6, (4aR,8aS)-6-(4-((7-nitrobenzo[c][1,2,5]oxadiazol-4-yl)amino)piperidine-1-carbonyl)hexahydro-2H-pyrido[4,3-b][1,4]oxazin-3(4H)-one] and `O=C1CO[C@H]2CCN(C(=O)N3CC(COC4=C5C=CC=[N+]5[B-](F)(F)n5cccc54)C3)C[C@H]2N1` [Example 7, (4aR,8aS)-6-(3-(((5,5-difluoro-5H-4λ^4,5λ^4-dipyrrolo[1,2-c:2,1′-f][1,3,2]diazaborinin-10-yl)oxy)methyl)azetidine-1-carbonyl)hexahydro-2H-pyrido[4,3-b][1,4]oxazin-3(4H)-one] are within 1.5-fold of each other in IC50: 3810 nM for the first, 2590 nM for the second.

First: O=C1COC2CCN(C(=O)N3C[C@@H]4[C@@H](COC5=C6C=CC=[N+]6[B-](F)(F)n6cccc65)[C@@H]4C3)CC2N1 (stereo partly drawn) [Example 14, (4aR,8aS)-6-((1R,5S,6R)-6-(((5,5-difluoro-5H-4λ^4,5λ^4-dipyrrolo[1,2-c:2′,1′-f][1,3,2]diazaborinin-10-yl)oxy)methyl)-3-azabicyclo[3.1.0]hexane-3-carbonyl)hexahydro-2H-pyrido[4,3-b][1,4]oxazin-3(4H)-one]
Second: O=C1CO[C@H]2CCN(C(=O)N3CC4(CC(=CC5=C6C=CC=[N+]6[B-](F)(F)n6cccc65)C4)C3)C[C@H]2N1 [Example 15, (4aR,8aS)-6-(6-((5,5-difluoro-5H-4λ^4, 5λ^4-dipyrrolo[1,2-c:2,1′-f][1,3,2]diazaborinin-10-yl)methylene)-2-azaspiro[3.3]heptane-2-carbonyl)hexahydro-2H-pyrido[4,3-b][1,4]oxazin-3(4H)-one]
The IC50 of the first is 12-fold higher: 500 nM for the first, 43.3 nM for the second. The second is the more potent here.

First: O=C1CO[C@H]2CCN(C(=O)N3CC4(CC(CC5=C6C=CC=[N+]6[B-](F)(F)n6cccc65)C4)C3)C[C@H]2N1 [Example 16, (4aR,8aS)-6-(6-((5,5-difluoro-5H-4λ^4,5λ^4-dipyrrolo[1,2-c:2,1′-f][1,3,2]diazaborinin-10-yl)methyl)-2-azaspiro[3.3]heptane-2-carbonyl)hexahydro-2H-pyrido[4,3-b][1,4]oxazin-3(4H)-one]
Second: NC(=O)[C@H]1CCN(C(=O)N2CC3(CC(CC4=C5C=CC=[N+]5[B-](F)(F)n5cccc54)C3)C2)C1 [Example 27, (S)-1-(6-((5,5-difluoro-5H-4λ^4,5λ^4-dipyrrolo[1,2-c:2,1′-f][1,3,2]diazaborinin-10-yl)methyl)-2-azaspiro[3.3]heptane-2-carbonyl)pyrrolidine-3-carboxamide]
The IC50 of the first is 2.6-fold lower: 0.77 nM for the first, 1.98 nM for the second. The first is the more potent here.

Going from `O=C(N1CC2(CC(CC3=C4C=CC=[N+]4[B-](F)(F)n4c3ccc4-c3ccc[nH]3)C2)C1)N1CC2(CC(n3cnc(C4CC4)n3)C2)C1` [Example 31, (6-(3-cyclopropyl-1H-1,2,4-triazol-1-yl)-2-azaspiro[3.3]heptan-2-yl)(6-((5,5-difluoro-3-(1H-pyrrol-2-yl)-5H-5λ^4,6λ^4-dipyrrolo[1,2-c:2′,1′-f][1,3,2]diazaborinin-10-yl)methyl)-2-azaspiro[3.3]heptan-2-yl)methanone] to “(4aR,8aS)-6-(2-((5,5-difluoro-5H-4λ^4, 5λ^4-dipyrrolo[1,2-c:2,1′-f][1,3,2]diazaborinin-10-yl)oxy)-7-azaspiro[3.5]nonane-7-carbonyl)hexahydro-2H-pyrido[4,3-b][1,4]oxazin-3(4H)-one [Example 12]”, the IC50 rises from 0.59 nM to 45 nM (76-fold).

Going from “(4aR,8aS)-6-(4-((5,5-difluoro-5H-4λ^4, 5λ^4-dipyrrolo[1,2-c:2,1′-f][1,3,2]diazaborinin-O-yl)methylene)piperidine-1-carbonyl)hexahydro-2H-pyrido[4,3-b][1,4]oxazin-3(4H)-one [Example 17]” to “(4aR,8aS)-6-(4-((5,5-difluoro-5H-4λ^4, 5λ^4-dipyrrolo[1,2-c:2′,1′-f][1,3,2]diazaborinin-10-yl)oxy)piperidine-1-carbonyl)hexahydro-2H-pyrido[4,3-b][1,4]oxazin-3(4H)-one [Example 9]”, the IC50 rises from 1680 nM to 6320 nM (3.8-fold).
